The values that follow come from patent US6825205B2 (priority 2002, dated 2004).

In data set [1] the target is μ opioid receptor (μ membrane protein) (Homo sapiens, UniProt P35372). Nature of the data set: biochemical.
The conditions of data set [2]: rat, in vivo.
A further data set is described as follows: in vivo. Particulars: Sprague-Dawley, rat, ip, 10 mg/kg.

Chain of μ opioid receptor (μ membrane protein) (P35372 whole entry, species assumed): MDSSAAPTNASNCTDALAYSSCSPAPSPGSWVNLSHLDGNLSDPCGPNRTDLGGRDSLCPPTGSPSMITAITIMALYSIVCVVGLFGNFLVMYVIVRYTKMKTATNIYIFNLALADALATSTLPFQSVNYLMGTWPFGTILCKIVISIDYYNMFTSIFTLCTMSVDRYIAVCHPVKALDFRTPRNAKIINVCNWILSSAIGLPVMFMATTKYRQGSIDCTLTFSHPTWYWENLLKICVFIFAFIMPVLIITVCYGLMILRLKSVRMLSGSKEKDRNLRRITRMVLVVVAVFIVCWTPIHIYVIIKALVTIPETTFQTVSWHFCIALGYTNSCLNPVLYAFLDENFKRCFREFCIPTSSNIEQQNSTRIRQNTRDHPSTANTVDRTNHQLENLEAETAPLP

As usually defined, the EC50 is the concentration giving half of the maximal effect. Low readings indicate an effect from little substance, high ones a need for much substance. Turning to `C[N+]1(C)CC[C@]23c4c5ccc(O)c4O[C@H]2C(=O)CC[C@H]3[C@H]1C5` [N-methylhydromorphone, N-methylhydromorphonium iodide], in data set [1], the EC50 stood at 817 ± 83 nM and the “GTP-γ-S Activity/Efficacy % DAMGO” value stood at 29 ± 1 % DAMGO. Further, in data set [2], the “Penetration of the CNS / blood-brain barrier” value is “does not penetrate the CNS”. In the data set “in vivo”, this molecule showed a Kp of 0.02 ± 0.01.
